Data on five compounds can be found in article PMC9457610, “Synthesis of thia-Michael-Type Adducts between Naphthoquinones and N-Acetyl-L-Cysteine and Their Biological Activity” (Molecules, 2022).

One series has as its system HeLa. Put plainly: MTT cell viability assay, HeLa. It counts as cell-based. Particulars: Homo sapiens, 48 h treatment, 0.01 to 200 μM, ± SD, n.a. = not active. The procedure: (§1) Molecules 8–12 were tested in vitro using the MTT assay against four cancer cell lines: HeLa, SH-SY5Y, SaOS2, and U2OS. […] Cytotoxic activities were expressed as IC50 values, i.e., the concentration of the substance that reduced cell viability by 50% (Table 2).
(§2) HeLa, SH-SY5Y, SaOS2, U2OS, and HDFa cell lines were purchased from American Type Culture Collection (ATCC; Manassas, VA, USA). HeLa, SaOS2, and U2OS cells were cultured in RPMI 1640 medium (Labtek Eurobio, Milan, Italy), while SH-SY5Y and HDFa cells were cultured in high-glucose DMEM (Labtek Eurobio, Milan, Italy), and both were supplemented with 10% FCS (Euroclone, Milan, Italy) and 2mM L-glutamine (Sigma-Aldrich, Milan, Italy), at 37 °C in a 5% CO2 atmosphere. The compounds were dissolved in DMSO in a 30–50 mM stock solution. In cell treatments, the final DMSO concentration never exceeded 0.1%.
(§3) Cells were seeded at 1.5 × 10^4 cells/well in a 96-well culture plastic plate (Orange Scientific, Braine-l’Alleud, Belgium), and after 24 h of growth, they were exposed to increasing concentrations of compounds (from 0.01 to 200 μM) solubilized in RPMI 1640 medium. After 48 h of treatment, the culture medium was replaced with 0.1 mL of 3-(4,5-dimethylthiazolyl-2)-2,5-diphenyltetrazolium bromide (MTT; Sigma-Aldrich, Milan, Italy) dissolved in PBS at the concentration of 0.2 mg/mL, and samples were incubated for 2 h at 37 °C. The formazan salt crystals formed were dissolved with 0.2 mL of isopropyl alcohol for 20 min. The absorbance at 570 nm was measured using a multi-well plate reader (Tecan, Männedorf, Switzerland), and data were analyzed using Prism GraphPad software and expressed as IC50.

A further series has as its system SH-SY5Y. Put plainly: MTT cell viability assay, SH-SY5Y. It counts as cell-based. The conditions noted are these: Homo sapiens, 48 h treatment, 0.01 to 200 μM, ± SD, n.a. = not active. The procedure: as §1, §2, §3
For another series, the system named is SaOS2. Put plainly: MTT cell viability assay, SaOS2. It counts as cell-based. Particulars: Homo sapiens, SAOS-2, 48 h treatment, 0.01 to 200 μM, ± SD, n.a. = not active. The procedure:
as §1, §2, §3
A general note: Tetrazolium dyes change colour on reduction, which living cells bring about.

The test system of the next series is U2OS. In words: MTT cell viability assay, U2OS. It counts as cell-based. The conditions noted are these: Homo sapiens, 48 h treatment, 0.01 to 200 μM, ± SD, n.a. = not active. The procedure:
as §1, §2, §3

A further series deals with HDFa. Put plainly: MTT cell viability assay, normal cell line HDFa. The format is cell-based. Particulars: Homo sapiens, normal dermal fibroblast, 48 h treatment, ± SD. The procedure: as §1, §2, §3
The subject of series [1] is HeLa cells. Put plainly: Intracellular ROS level (DCFDA), HeLa. It counts as cell-based, human. The procedure:
(§4) To further explore and establish a direct relationship between 8 or 11 and ROS, DCFH-DA staining was applied to HeLa, U2OS, and SH-SY5Y cells treated for 1 h and 48 h. […] Indeed, in HeLa cells, 8 induced an increase in ROS formation of 1.14 ± 0.042, while in U2OS and SH-SY5Y cells, the increases were 1.30 ± 0.13-fold and 1.51 ± 0.16-fold with respect to control, with p < 0.0001, p < 0.0005, and p < 0.0024, respectively. In the same way, 11 induced increases in ROS formation in HeLa cells of 1.27 ± 0.16, while in U2OS and SH-SY5Y cells, the increases were 1.62 ± 0.11-fold and 1.61 ± 0.14-fold with respect to control, with p < 0.0049, p < 0.0001, and p < 0.0056, respectively. Moreover, it is important to note that both compounds 8 and 11 induced a greater formation of ROS in U2OS and SH-SY5Y cells than in HeLa cells, as shown in Figure 5A.
(§5) Oxidative stress was measured in intact cells using an ROS indicator, 2′,7′-dichlorodihydrofluorescein diacetate (DCFDA; Thermo Fisher Scientific, Waltham, MA, USA). HeLa, U2OS, and SH-SY5Y cells were seeded in 96-well plates at 1.5 × 10^4 cells/well (Optiplate, Perkin Elmer, Milan, Italy), and after 24 h to allow adhesion, HeLa and SH-SY5Y cells were incubated with 5 μM GA 462 or 20 μM SM71, while U2OS were treated with 5 μM 8 or 30 μM 11, dissolved in complete medium for 1 or 48 h at 37 °C in 5% CO2 atmosphere. After this time, cells were washed with PBS and treated with 10 μM DCFDA in culture medium for 30 min. Finally, cells were washed again with PBS and the fluorescence value in each well was measured (λexc = 488 nm; λem = 530 nm) with a plate reader (Tecan, Männedorf, Switzerland). Fluorescence emission was normalized to protein content measured using the Bradford method.

Series [2] concerns U2OS cells. In words: Intracellular ROS level (DCFDA), U2OS. It counts as cell-based, human. The conditions noted are these: 5 μM 8 or 30 μM 11; for increase in ROS formation with respect to control: 1 h; for ROS production: 48 h. The procedure: as §4, §5
Series [3] concerns SH-SY5Y cells. Put plainly: Intracellular ROS level (DCFDA), SH-SY5Y. It counts as cell-based, human. The conditions noted are these: for increase in ROS formation with respect to control: 1 h, 5 μM 8 (GA 462) or 20 μM 11 (SM71); for ROS production: 48 h, 5 μM 8 or 20 μM 11. The procedure:
as §4, §5

Series [4] concerns HeLa cells. In words: Cell-cycle analysis (PI stain, flow cytometry), HeLa. It counts as cell-based, human. Particulars: 5 μM. The procedure: (§6) For this reason, we decided to analyze the effects on proliferation by treating the cells only with 8. Next, we explored the effect of 5 μM 8 on cell-cycle distribution in HeLa, U2OS, and SH-SY5Y cancer cells using PI stain followed by flow cytometry. Cells were exposed to the compound for 24 or 48 h prior to processing and analysis.
(§7) The effects on the HeLa and U2OS cell cycles were studied after 24 or 48 h of treatment with 5 μM 8. Cells were detached with 0.11% trypsin, washed in PBS and centrifuged. The pellet was resuspended in 0.01% Nonidet P-40, 10 μg/mL RNase, 0.1% sodium citrate, and 50 μg/mL PI, for 30 min at room temperature in the dark. Flow cytometric analyses were performed as previously described.
For orientation: In flow cytometry, cells or beads pass a laser one at a time.

Series [5] has as its system U2OS cells. In words: Cell-cycle analysis (PI stain, flow cytometry), U2OS. The format is cell-based, human. Particulars: 5 μM. The procedure: as §6, §7
Series [6] deals with SH-SY5Y cells. In words: Cell-cycle analysis (PI stain, flow cytometry), SH-SY5Y. The format is cell-based, human. The conditions noted are these: 5 μM. The procedure:
as §6, §7

Series [7] has as its system HeLa, SH-SY5Y, SaOS2, and U2OS. Put plainly: MTT cell viability assay, all malignant cell lines tested (summary). The format is cell-based, human. Particulars: summary over HeLa, 48 h; for IC50: Homo sapiens, read-out: IC50 values against all the malignant cell lines tested. The procedure: as §1, §2, §3
The mark [8] stands for this setting: 1 h, 5 μM 8 (GA 462) or 20 μM 11 (SM71).

Usually IC50 stands for the concentration that gives 50% inhibition. Take `CC(=O)N[C@@H](CSC1=CC(=O)c2ccccc2C1=O)C(=O)O` [Compound 8, N-acetyl-S-(1,4-dioxo-1,4-dihydronaphthalen-2-yl)-L-cysteine]: the half-maximal inhibitory concentration (IC50) with HeLa was 540 ± 50 nM; with SH-SY5Y, 870 ± 3 nM; in the series with SaOS2, 1670 ± 10 nM; in the series on U2OS, 1810 ± 7 nM; with HDFa it was 7430 ± 20 nM; in [7], 500 to 1810 nM. For the same compound, the “increase in ROS formation with respect to control” value (from here on “increase in ROS formation”) in the series with HeLa cells [1] (setting [8]) amounted to 1.14 ± 0.042 fold; with HeLa cells [1] (48 h, 5 μM 8), 2.28 ± 0.47 fold; in the series with U2OS cells [2], 1.30 ± 0.13 fold; in the series on SH-SY5Y cells [3], 1.51 ± 0.16 fold. The ROS production result with U2OS cells [2] and with SH-SY5Y cells [3] was “no ROS production” in each case. Further, the “increase in the number of G0/G1-phase cells with respect to control” value in the series on HeLa cells [4] (24 h) amounted to 1.3%. For the same compound, in the series with HeLa cells [4] (48 h), the “increase in the number of cells in the S phase with respect to control” value was determined as 1.2%. The “increase in S-phase cells with respect to control” value in the series on U2OS cells [5] (24 h) is on record as 1.3%; in the series on SH-SY5Y cells [6] (24 h), 1.1%. Further, the “accumulation of cells in the S phase with respect to control” value in the series with U2OS cells [5] (48 h) was determined as 1.1%; with SH-SY5Y cells [6] (48 h) it was 1.3%.
A word on the melting point: it is the temperature, or range, at which the solid turns liquid. Compound `CC(=O)N[C@@H](CSC1=C(C)C(=O)c2ccccc2C1=O)C(=O)O` [Compound 9, N-acetyl-S-(3-methyl-1,4-dioxo-1,4-dihydronaphthalen-2-yl)-L-cysteine] yielded a melting point of 206.9 to 208.3 °C. The same compound had an IC50 with HeLa of 500 ± 80 nM. In the series on SH-SY5Y, this compound displayed a half-inhibitory concentration (IC50) of 960 ± 60 nM. In the series on SaOS2, this compound registered an IC50 of 590 ± 40 nM. Also, it took 510 ± 60 nM to reach half-maximal inhibition with U2OS (IC50). In the series with HDFa, this compound displayed an IC50 of 3870 ± 10 nM. The IC50 in series [7] fell in the range of 500 to 1810 nM.
On to `CC(=O)N[C@@H](CSC1=C(C)C(=O)c2cccc(O)c2C1=O)C(=O)O` [Compound 10, N-acetyl-S-(8-hydroxy-3-methyl-1,4-dioxo-1,4-dihydronaphthalen-2-yl)-L-cysteine], for which the melting point is > 193 °C (dec.). The “IC50 values against all the malignant cell lines tested” value in series [7] was “inactive”.
For `CC(=O)N[C@@H](CSC1=CC(=O)c2c(O)cccc2C1=O)C(=O)O` [Compound 11, N-acetyl-S-(5-hydroxy-1,4-dioxo-1,4-dihydronaphthalen-2-yl)-L-cysteine], the melting point was in the range of 209.8 to 211.7 °C. For the same compound, in the series on HeLa, the half-maximal inhibitory concentration (IC50) was 13200 ± 50 nM. This compound yielded an IC50 in the series with SH-SY5Y of 11400 ± 1 nM. In the series with SaOS2, this compound had an IC50 of 25900 ± 50 nM. The same compound displayed a half-inhibitory concentration (IC50) in the series on U2OS of 30400 ± 5 nM. Moreover, the 50% inhibitory concentration (IC50) in the series with HDFa came out at 6880 ± 50 nM. For the same compound, the “increase in ROS formation” value in the series with HeLa cells [1] (setting [8]) is on record as 1.27 ± 0.16 fold. Moreover, in the series with U2OS cells [2], the “increase in ROS formation” value was 1.62 ± 0.11 fold and the ROS production entry is listed as “no ROS production”. In the series with SH-SY5Y cells [3], the “increase in ROS formation” value is given as 1.61 ± 0.14 fold and the ROS production result is “no ROS production”.
In turn, `CC(=O)N[C@@H](CSC1=CC(=O)c2c(O)ccc(O)c2C1=O)C(=O)O` [Compound 12, N-acetyl-S-(5,8-dihydroxy-1,4-dioxo-1,4-dihydronaphtalen-2-yl)-L-cysteine] had a melting point of 238.2 to 239.9 °C. This compound also showed a half-maximal inhibitory concentration (IC50) in the series on HeLa of 1040 ± 8 nM. Moreover, the midpoint of inhibition in the series with SH-SY5Y, the IC50, lay at 630 ± 40 nM. For the same compound, the IC50 in the series on SaOS2 was 1560 ± 30 nM. In the series with U2OS, the IC50 turned out to be 1650 ± 30 nM. Further, the IC50 with HDFa was 830 ± 7 nM. Besides, the concentration for half-maximal inhibition (IC50) in [7] lay in the range of 500 to 1810 nM.
